“Also recorded” adds a separate entry of the source.
Tests used:
Assay type in all cases: cell-based, human
phospho-tau = phospho-tau expression, Western blot / MICE assay; conditions: PNET2 cells induced to express AD7c-NTP; relative to PDGF-stimulated cultures
Text: (§1) Standard Western blot assays wew used to measure cellular levels of p53, Bcl-2, p21/Waf1, phospho-tau, tau, c-fos, NTP, and activated (phosphorylated) forms of Erk mitogen activated protein (MAP) kinase, amino-terminal c-jun-activated kinase (pJNK), and p38/HOG1. Immunoprecipitation followed by Western blot analysis was used to measure p85 subunit associated with IRS1. For Western blot analysis of p53 Bcl-2, phospho-tau, tau, c-fos, and NTP, the cells were lysed in ice cold radioimmunoprecipitation assay (RIPA) buffer supplemented with protease and phosphatase inhibitors. […] Protein concentrations were measured using the BCA assay (Pierce, Rockford, Ill.). Samples containing 60 μg of protein were fractionated by sodium dodecyl sulfate polyacrylamide gel electrophoresis (SDS-PAGE), then transferred to PVDF membranes, and analyzed by Western immunoblotting. Immunoreactivity was detected with horseradish peroxidase conjugated secondary IgG and PicoWest enhanced chemiluminescence reagents (Pierce Chemical Company, Rockford, Ill.). CAT activity was measured using known methods.
(§2) The MICE assay is known in the art (e.g., as described by de la Monte et al., 1999, Biotechniques 26:107301076). […] Immunoreactivity was detected using horseradish peroxidase conjugated secondary antibody (Pierce, Rockford, Ill.) and the TMB soluble peroxidase substrate (Pierce, Rockford, Ill.). […]

p53 = p53 expression, Western blot / MICE assay; conditions: PNET2 cells induced to express AD7c-NTP, growth factor stimulated
Text: (§3) Standard Western blot assays wew used to measure cellular levels of p53, Bcl-2, p21/Waf1, phospho-tau, tau, c-fos, NTP, and activated (phosphorylated) forms of Erk mitogen activated protein (MAP) kinase, amino-terminal c-jun-activated kinase (pJNK), and p38/HOG1. Immunoprecipitation followed by Western blot analysis was used to measure p85 subunit associated with IRS1. For Western blot analysis of p53 Bcl-2, phospho-tau, tau, c-fos, and NTP, the cells were lysed in ice cold radioimmunoprecipitation assay (RIPA) buffer supplemented with protease and phosphatase inhibitors. For the immunoprecipitation studies, Western blot analysis of phospho-Erk, pJNK, and p38, and the PI3 kinase assays, the cells were harvested in Triton lysis buffer supplemented with protease and phosphatase inhibitors. Protein concentrations were measured using the BCA assay (Pierce, Rockford, Ill.). Samples containing 60 μg of protein were fractionated by sodium dodecyl sulfate polyacrylamide gel electrophoresis (SDS-PAGE), then transferred to PVDF membranes, and analyzed by Western immunoblotting. Immunoreactivity was detected with horseradish peroxidase conjugated secondary IgG and PicoWest enhanced chemiluminescence reagents (Pierce Chemical Company, Rockford, Ill.). CAT activity was measured using known methods.
(§4) The MICE assay is known in the art (e.g., as described by de la Monte et al., 1999, Biotechniques 26:107301076). The assay is a rapid and sensitive method for quantifying immunoreactivity in 96-well micro-cultures and combines the advantages of the enzyme-linked immunosorbant assay with immunocytochemical staining to permit sensitive in situ quantification of protein expression with values normalized to cell density. […] Immunoreactivity was detected using horseradish peroxidase conjugated secondary antibody (Pierce, Rockford, Ill.) and the TMB soluble peroxidase substrate (Pierce, Rockford, Ill.). Absorbances were measured at 450 nm using a Spectracount plate reader. […]

Bcl-2 = Bcl-2 expression, Western blot / MICE assay; conditions: PNET2 cells induced to express AD7c-NTP, growth factor stimulated
Text: as §3, §4

phospho-Erk MAPK = experiment: Growth factor stimulated phospho-Erk MAPK, Western blot; conditions: for phospho-Erk MAPK level, short-term stimulation: 0-30 minutes stimulation; for phospho-Erk MAPK level, 24 hours: 24 hours of AD7c-NTP induction and growth factor stimulation
Text: as §3
(§5) The potential mechanisms by which the differential effects of insulin, IGF1 and PDGF might occur were explored by examining pathways, which mediate PNET2 neuronal apoptosis and neuritic sprouting. […] Western blot analysis was performed with cell lysates obtained from cultures stimulated with insulin, IGF1, or PDGF for 0-30 minutes or 24 hours with equivalent protein loading (60 μg/sample). The membranes were probed using antibodies to Erk, phospho-Erk, Jun, and phospho-JNK. […] In contrast, after 24 hours of AD7c-NTP gene induction and growth factor stimulation, high levels of phospho-Erk MAPK were detected in the IGF-1 and PDGF-stimulated cultures, but not in the serum-starved or insulin-stimulated cultures. […] In contrast, the levels of c-fos transcription factor were equally expressed after 24 hours IPTG induction of AD7c-NTP expression and either serum starvation or stimulation with insulin, IGF1 or PDGF.

p25 = p25 expression, Western blot / MICE assay; conditions: PNET2 cells induced to express AD7c-NTP
Text: as §1, §2

[1] = tested on: nitric oxide synthase-3 (NOS-3); experiment: NOS-3 expression, Western blot; conditions: PNET2 cells induced to express AD7c-NTP; relative to PDGF-stimulated cultures
Text: as §3, with “methods. […]” for “methods.”

[2] = tested on: PNET2 cells induced to express AD7c-NTP; experiment: Cell morphology by phase contrast microscopy; conditions: IPTG-induced AD7c-NTP; insulin 50 nM, IGF-1 5 ng/ml, NGF 2.5 ng/ml, PDGF 5 ng/ml; 24-48 hours
Description: (§6) To examine the effects of different growth factors on AD7c-NTP expression (and over-expression), the cells were serum-starved for 16 hours, after which IPTG (1-5 mM) was added to the medium. Four hours later, the cells were stimulated with insulin (50 nM), IGF-1 (5 ng/ml), NGF ([…]), or platelet-derived growth factor (PDGF; 5 ng/ml) for 24-72 hours. The cells were analyzed for morphological changes, viability, AD7c-NTP immunoreactivity, and expression of pro-apoptosis genes, survival genes, and phospho-tau.
Cells were serum-starved for 24 hours. However, since several hours of IPTG stimulation were required to induce AD7c-NTP gene expression or CAT activity, IPTG (3 mM) was added to the cultures after 16 hours of serum-starvation, i.e. 8 hours prior to growth factor stimulation. The cells were stimulated with insulin (50 nM), IGF-1 (5 ng/ml), NGF (2.5 ng/ml), or PDGF (5 ng/ml) and examined by phase contrast microscopy 24-48 hours later. PNET2 cells could be maintained in serum-free medium for 5 to 7 days with insulin, IGF-1, NGF, or PDGF as the only growth stimulus. In addition, each of these growth factors supports DNA synthesis and promotes modest outgrowth of multipolar neurites in PNET2 cells.

[3] = tested on: PNET2 cells induced to express AD7c-NTP; experiment: Crystal violet viability assay; conditions: 3 mM IPTG-induced AD7c-NTP; relative to un-induced FCS-stimulated and IPTG-induced NGF or PDGF stimulated cultures
Description: as §6
Viability was measured by a standard crystal violet assay. Crystal violet dye labels only viable cells. The assays were performed with cells seeded into 96-well plates at a density of 2×10^4 cells/well. The absorbances were measured using a Spectracount plate reader (Packard, Meriden, Conn.). The crystal violet absorbances increased linearly with cell density between 10^4 and 5×10^5 cells/well.
Cells were serum-starved for 24 hours. However, since several hours of IPTG stimulation were required to induce AD7c-NTP gene expression or CAT activity, IPTG (3 mM) was added to the cultures after 16 hours of serum-starvation, i.e. 8 hours prior to growth factor stimulation. […]
Increased cell loss associated with insulin-stimulation and AD7c-NTP over-expression Cell viability was quantified using the microculture Crystal violet assay with cells seeded into 96-well plates. […]

p21/Waf1 = p21/Waf1 expression, Western blot / MICE assay; conditions: PNET2 cells induced to express AD7c-NTP, growth factor stimulated
Text: as §1, §2

phospho-JNK = experiment: Growth factor stimulated phospho-JNK, Western blot; conditions: for phospho-JNK level, short-term stimulation: 5-30 min stimulation
Text: as §3, §5

[4] = tested on: IRS-1-associated PI3 kinase; experiment: IRS-1-associated PI3 kinase activity; conditions: 3 mM IPTG-induced cultures, 30 minutes of stimulation
Description: The cells were harvested in Triton lysis buffer supplemented with protease and phosphatase inhibitors. Total PI3K was immunoprecipitated from 500 μg protein in cell lysates using rabbit polyclonal antibodies to the p85 subunit of PI3K and Protein A sepharose. The immunoprecipitants were incubated for 5 minutes at room temperature with 10 μg of sonicated phosphatidylinositol in HEPES buffer (200 mM HEPES, 4 mM EGTA, 4 mM sodium phosphate, pH 7.0). Reactions were initiated by the addition of 5 μCi [α^32p] ATP, 15 mM MgCl2, 150 mM ATP, 1.5 mM Tris-HCl, pH 7.4, and 15 mM NaCl. […] Phosphorylated lipids were analyzed by thin layer chromatography using gel plates pre-coated with 1% oxalate (Merck, White House Station, N.J.). PI3K activity was measured with a phosphorimager.
PI3 kinase is an important mediator of neuronal survival. […] Since insulin and IGF-1 can activate PI3 kinase through the insulin-receptor substrate-1 (IRS-1) or through IRS-1-independent pathways, both IRS1-associated PI3 kinase and total PI3 kinase activities were measured. […] Levels of PI3 kinase activity were measured in anti-phospho-tyrosine (PY) immunoprecipitates. […] Similarly, PI3 kinase activity was readily detected in the PY immunoprecipitates prepared with cells stimulated with insulin or PDGF.

[5] = tested on: PY-PI3 kinase (total PI3 kinase); experiment: PI3 kinase activity in anti-phospho-tyrosine (PY) immunoprecipitates
Description: The cells were harvested in Triton lysis buffer supplemented with protease and phosphatase inhibitors. Total PI3K was immunoprecipitated from 500 μg protein in cell lysates using rabbit polyclonal antibodies to the p85 subunit of PI3K and Protein A sepharose. The immunoprecipitants were incubated for 5 minutes at room temperature with 10 μg of sonicated phosphatidylinositol in HEPES buffer (200 mM HEPES, 4 mM EGTA, 4 mM sodium phosphate, pH 7.0). Reactions were initiated by the addition of 5 μCi [α^32p] ATP, 15 mM MgCl2, 150 mM ATP, 1.5 mM Tris-HCl, pH 7.4, and 15 mM NaCl. After 10 minutes incubation at 30° C., the reactions were stopped by the addition of HCl to a final concentration of 1.2 N, followed by chloroform/methanol extraction. Phosphorylated lipids were analyzed by thin layer chromatography using gel plates pre-coated with 1% oxalate (Merck, White House Station, N.J.). PI3K activity was measured with a phosphorimager.
PI3 kinase is an important mediator of neuronal survival. The pro-survival effects of PI3K are mediated through activation of Akt (protein kinase B) and phosphorylation of Bad to render it inactivated. Inhibition of PI3 kinase activity is associated with PNET2 cell apoptosis. Therefore, experiments were carried out to determine if growth factor stimulated PI3 kinase activity was inhibited in insulin or IGF-1-stimulated cultures. Such inhibition has been observed following chronic ethanol exposure. Since insulin and IGF-1 can activate PI3 kinase through the insulin-receptor substrate-1 (IRS-1) or through IRS-1-independent pathways, both IRS1-associated PI3 kinase and total PI3 kinase activities were measured. These studies were conducted using insulin or PDGF stimulated cultures in which AD7c-NTP gene expression was induced by 3 mM IPTG stimulation. […] Levels of PI3 kinase activity were measured in anti-phospho-tyrosine (PY) immunoprecipitates. […] Similarly, PI3 kinase activity was readily detected in the PY immunoprecipitates prepared with cells stimulated with insulin or PDGF.

| Substance | phospho-tau level (phospho-tau) | p53 level (p53) | Bcl-2 level (Bcl-2) | phospho-Erk MAPK level, short-term stimulation (phospho-Erk MAPK) | phospho-Erk MAPK level, 24 hours (phospho-Erk MAPK) | p25 level (p25) | NOS-3 level [1] | cell morphology [2] | cell density (crystal violet) [3] | p21/Waf1 level (p21/Waf1) | phospho-JNK level, short-term stimulation (phospho-JNK) | phospho-JNK level, 24 hour time point (phospho-JNK) | IRS-1-associated PI3 kinase activity [4] | PY-PI3 kinase activity, short-term ([5]; 5-30 minutes, PDGF versus insulin-stimulated cultures) | PY-PI3 kinase activity, 24 or 48 hours ([5]; 24 or 48 hours of stimulation) |
| --- | --- | --- | --- | --- | --- | --- | --- | --- | --- | --- | --- | --- | --- | --- | --- |
| IGF-1: Recombinant human IGF1 purchased from Sigma | increased levels | intermediate levels; also recorded: significantly increased levels | intermediate levels; also recorded: reduced levels | increased levels | high levels | significantly increased levels | increased levels | two populations of cells | significantly reduced cell densities | significantly increased levels | much lower levels | no detectable phospho-JNK expression | – | – | – |
| NGF: Recombinant human NGF purchased from Sigma | – | – | – | – | – | – | – | extensive neuritic growth with multipolar fine interconnecting processes and minimal evidence of on-going cell death | – | – | – | – | – | – | – |
| PDGF | – | no detectable p53 | high levels of Bcl-2 | minimal effect | high levels | – | – | extensive neuritic growth with multipolar fine interconnecting processes and minimal evidence of on-going cell death | – | – | much lower levels | no detectable phospho-JNK expression | virtually undetectable | consistently lower | similar |

From patent US7319094B2, “Increased and sustained in vivo gene expression using a nucleic acid, histone and amphipathic compound composition” (Rhode Island Hospital, priority 2001, dated 2008)
